Where two headings read alike, the source gives them in different places.
Biological target: T1, Syk catalytic domain (aa 356-635 with a C-terminal His-tag) (Homo sapiens, UniProt P43405)
T1 construct: His-tag (C); made in house
Test: In vitro Syk kinase activity measured by trFRET, Syk catalytic domain
Assay type: biochemical
Description: In Vitro Syk Kinase Activity Measured by Time-Resolved Fluorescence Resonance Energy Transfer (trFRET)
0.14 nM purified Syk catalytic domain (aa 356-635 with a C-terminal His-tag purified in-house by immobilized metal ion affinity chromatography) was mixed with 0.2 μM peptide substrate (biotin-TYR1, Sequence: Biotin-(Ahx)-GAEEEIYAAFFA-COOH) at varying inhibitor concentrations in reaction buffer: 50 mM MOPSO pH 6.5, 10 mM MgCl2, 2 mM MnCl2, 2.5 mM DTT, 0.01% BSA, 0.1 mM Na3VO4 and 0.001 mM ATP. After about 60 min incubation at rt, the reaction was quenched by addition of EDTA (final concentration: 100 mM) and developed by addition of revelation reagents (final approximate concentrations: 30 mM HEPES pH 7.0, 0.06% BSA, 0.006% Tween-20, 0.24 M KF, 80 ng/mL PT66K (europium labeled anti-phosphotyrosine antibody cat #61T66KLB Cisbio, Bedford, Mass.) and 0.6 μg/mL SAXL (Phycolink streptavidin-allophycocyanin acceptor, cat #PJ255, Prozyme, San Leandro, Calif.). The developed reaction was incubated in the dark either at about 4° C. for about 14 h or for about 60 min at rt, then read via a time-resolved fluorescence detector (Rubystar, BMG) using a 337 nm laser for excitation and monitoring emission wavelengths at 665 nm. Within the linear range of the assay, the observed signal at 665 nm was directly related to phosphorylated product and can be used to calculate the IC50 values.
MOPSO buffer contains: 50 mM MOPSO pH 6.5, 10 mM MgCl2, 2 mM MnCl2, 2.5 mM DTT, 0.01% BSA, and 0.1 mM Na3VO4 HEPES buffer contains: 50 mM HEPES pH 7.1, 2.5 mM DTT, 10 mM MgCl2, 2 mM MnCl2, 0.01% BSA, and 0.1 mM Na3VO4 MOPS buffer contains: 20 mM MOPS pH 7.2, 10 mM MgCl2, 5 mM EGTA, 5 mM Beta-phosphoglycerol, 1 mM Na3VO4, 0.01% Triton-X-100 and 1 mM DTT
Biotin-TYR1-peptide sequence: Biotin-(Ahx)-GAEEEIYAAFFA-COOH Biotin-TYR2-peptide sequence: Biotin-(Ahx)-AEEEYFFLFA-amide KinEASE 51 peptides were purchased from Cisbio (cat #62ST0PEB, Bedford, Mass.)
PT66K was purchased from Cisbio (cat #61T66KLB, Bedford, Mass.) EuSTK was purchased from Cisbio (cat #62ST0PEB, Bedford, Mass.) SAXL was purchased from Prozyme (cat #PJ25S, San Leandro, Calif.) Human T-Blasts IL-2 pSTAT5 Cellular Assay

[1] = Syk catalytic domain (aa 356-635), trFRET, 0.001 mM ATP

| Compound | IC50 | IC50 [1] |
| --- | --- | --- |
| CS(=O)(=O)c1ccc(-c2nc([C@H]3CC[C@H](N)CC3)n3c2cnc2[nH]ccc23)cc1 [P.3.1.11] | 100 to 1000 nM |  |
| CCc1c(-c2ccc(C(C)(C)O)cc2)[nH]c2ncc3cnc(N(C)C)n3c12 [S.1.2] | 100 to 1000 nM |  |
| COCCC(=O)N1CCCC(c2nc(-c3ccc(S(C)(=O)=O)cc3)c3cnc4[nH]ccc4n23)C1 (stereo not drawn) [N.1.63] |  | 1000 to 10000 nM |
| Cc1c(-c2ccc(C(C)(C)O)cc2)[nH]c2ncc3nnc(C)n3c12 [S.1.5] | 1000 to 10000 nM |  |
| CCc1c(-c2cn(C)nc2C)[nH]c2ncc3cnn(C)c3c12 [N.1.37] |  | 1000 to 10000 nM |
| CCc1c[nH]c2ncc3c(-c4cccnc4)nn(C)c3c12 [N.1.75] |  | 1000 to 10000 nM |
| CCCNC(=O)c1ccc(-c2nc(C)n3c2cnc2[nH]ccc23)cc1 [AC.1.29] | < 100 nM |  |
| Cc1nc(C2=CCN(C(=O)OC(C)(C)C)CC2)c2cnc3[nH]ccc3n12 [AC.1.13] | 1000 to 10000 nM |  |
| Cc1nc(-c2ccc(S(=O)(=O)N(C)C)cc2)c2cnc3[nH]ccc3n12 [AC.1.10] | 100 to 1000 nM |  |
| COc1ccc(-c2nc(N3CCN(C)CC3)n3c2cnc2[nH]ccc23)cc1 [N.1.85] |  | 1000 to 10000 nM |
| CN(C)CC1CCN(c2nc(-c3ccc(S(C)(=O)=O)cc3)c3cnc4[nH]ccc4n23)C1 (stereo not drawn) [N.1.64] |  | 1000 to 10000 nM |
| COc1ccc(-c2ncn3c2cnc2[nH]ccc23)cc1Cl [AC.4.9] | < 100 nM |  |
| CC(=O)Nc1ccc(-c2nc(C3CCCCC3)n3c2cnc2[nH]ccc23)cc1 [AC.3.7] | 100 to 1000 nM |  |
| COc1ccc(-c2nc(C)n3c2cnc2[nH]ccc23)c(C)c1 [AC.1.17] | > 10000 nM |  |
| Cc1ccc(-c2nc(C)n3c2cnc2[nH]ccc23)c2cc[nH]c12 [N.1.57] |  | 1000 to 10000 nM |
| COc1ccc(-c2ncn3c2cnc2[nH]cc(C4=CCNCC4)c23)cc1 [P.3.1.12] | 1000 to 10000 nM |  |
| O=C(c1ccc(-c2nc(C3CCCCC3)n3c2cnc2[nH]ccc23)cc1)N1CCOCC1 [AC.3.28] | 100 to 1000 nM |  |
| CCc1c[nH]c2ncc3c(-c4ccc(C(C)(C)O)cc4)nn(C)c3c12 [N.1.60] |  | 1000 to 10000 nM |
| COc1ccc2c(c1)c(-c1nc(C3CCCCC3)n3c1cnc1[nH]ccc13)cn2C [N.1.48] |  | 1000 to 10000 nM |

| Compound | IC50 | IC50 [1] |
| --- | --- | --- |
| CS(=O)(=O)c1ccc(-c2nc(COCCN)n3c2cnc2[nH]ccc23)cc1 [T.4.1.1] | 100 to 1000 nM |  |
| CC(C)(O)c1ccc(-c2nc([C@H]3CCC[C@H](N)C3)n3c2cnc2[nH]ccc23)cc1 [P.3.1.9] | < 100 nM |  |
| CN(C)CCNC(=O)c1ccc(-c2nc(C3CCCCC3)n3c2cnc2[nH]ccc23)cc1 [AC.3.26] | 100 to 1000 nM |  |
| CCc1c[nH]c2ncc3c(-c4ccc(S(N)(=O)=O)cc4)nn(C)c3c12 [N.1.72] |  | 100 to 1000 nM |
| CCCNC(=O)c1ccc(-c2nc(C)n3c2cnc2[nH]ccc23)cc1Cl [J.1.6.1] |  | 100 to 1000 nM |
| Cn1ncc2cnc3[nH]c(-c4cccc(CC(=O)NCCN5CCOCC5)c4)cc3c21 [N.1.12] |  | 100 to 1000 nM |
| CC(=O)NCc1nc(-c2ccc(C(C)(C)O)cc2)c2cnc3[nH]ccc3n12 [J.2.1.8] |  | 100 to 1000 nM |
| COc1ccc(-c2nc(C)n3c2cnc2[nH]ccc23)cn1 [AC.1.21] | 100 to 1000 nM |  |
| COc1ccc2c(c1)c(-c1cc3c4c(cnc3[nH]1)CCN4C)cn2C [N.1.22] |  | 1000 to 10000 nM |
| CS(=O)(=O)c1ccc(-c2nc(CC3CNCCO3)n3c2cnc2[nH]ccc23)cc1 (stereo not drawn) [N.1.94] |  | 100 to 1000 nM |
| CC(C)(O)c1ccc(-c2nc(CN3CCCNCC3)n3c2cnc2[nH]ccc23)cc1 [N.1.97] |  | 100 to 1000 nM |
| Cc1cnc2cnc3[nH]c(-c4ccc(C(C)(C)O)cc4)cc3n12 [S.1.10] | 100 to 1000 nM |  |
| CN1CCN(C(=O)CCO)C[C@@H]1c1nc(-c2ccc(C(C)(C)O)cc2)c2cnc3[nH]ccc3n12 [N.1.95] |  | 100 to 1000 nM |
| Cc1cc(-c2nc(C)n3c2cnc2[nH]ccc23)ccc1N1CCOCC1 [AC.1.27] | < 100 nM |  |
| CC(C)(O)c1ccc(-c2nc(CN)n3c2cnc2[nH]ccc23)cc1 [AC.5.6, 2-(4-(1-(Aminomethyl)-6H-imidazo[1,5-a]pyrrolo[2,3-e]pyrazin-3-yl)phenyl)propan-2-ol] | 1000 to 10000 nM |  |
| c1cc(-c2nc(C3CCCCC3)n3c2cnc2[nH]ccc23)ccn1 [AC.3.23] | 100 to 1000 nM |  |
| COc1ccc(-c2nc(C)n3c2cnc2[nH]ccc23)cc1C(=O)NCCO [J.1.7.3] |  | 100 to 1000 nM |
| COc1ccc2c(c1)c(-c1cc3c(ncc4cnn(C)c43)[nH]1)nn2C [N.1.83] |  | 100 to 1000 nM |
| COc1ccc2c(c1)c(-c1cc3c(ncc4cnc(C(F)(F)F)n43)[nH]1)cn2C [L.1.1, 7-(5-Methoxy-1-methyl-1H-indol-3-yl)-1-(trifluoromethyl)-6H-imidazo[1,5-a]pyrrolo[2,3-e]pyrazine] |  | 100 to 1000 nM |

The remaining lines, values ahead:

| IC50 | IC50 [1] | Compound |
| --- | --- | --- |
|  | < 100 nM | Cn1cc(-c2cc3c(ncc4cnn(C)c43)[nH]2)c2cc(C(=O)NCC(C)(C)CO)ccc21 [J.2.2.2] |
|  | < 100 nM | Cn1ncc2cnc3[nH]c(-c4ccc(OCCCN5CCOCC5)cc4)cc3c21 [N.2.5] |
|  | < 100 nM | COc1ccc2c(c1)c(-c1cc3c(ncc4cnc(N(C)C)n43)[nH]1)cn2C [M.1.8] |
|  | 100 to 1000 nM | CNc1ncc2cnc3[nH]c(-c4ccc(C)cc4)cc3n12 [M.1.15] |
|  | 100 to 1000 nM | CS(=O)(=O)c1cccc(-c2cc3c(ncc4cnc(CCCN)n43)[nH]2)c1 [T.1.1.6] |
|  | < 100 nM | Cn1cc(-c2cc3c(ncc4cnn(C)c43)[nH]2)c2cc(C(=O)NS(C)(=O)=O)ccc21 [Example 8, 1-Methyl-3-(1-methyl-1,6-dihydropyrazolo[3,4-d]pyrrolo[2,3-b]pyridin-7-yl)-N-(methylsulfonyl)-1H-indole-5-carboxamide] |
|  | < 100 nM | COc1ccc(-c2nc(C(=O)NCCO)n3c2cnc2[nH]ccc23)cc1 [J.1.2.1] |
|  | < 100 nM | CC(=O)N1CCC(O)(c2ccc(-c3nc(C)n4c3cnc3[nH]ccc34)cc2)CC1 [J.2.1.6] |
|  | 100 to 1000 nM | COCCC(=O)NCc1cccc(-c2cc3c(ncc4cnn(C)c43)[nH]2)c1 [J.1.1.2] |
|  | 100 to 1000 nM | CCc1c(-c2cccc(S(C)(=O)=O)c2)[nH]c2ncc3cnn(C)c3c12 [N.1.21] |
|  | < 100 nM | CN(C)S(=O)(=O)c1cccc(-c2cc3c(ncc4cnn(C)c43)[nH]2)c1 [N.1.32] |
|  | 100 to 1000 nM | CCc1c[nH]c2ncc3c(-c4ccc(C(=O)NC5CC5)cc4)nn(C)c3c12 [N.1.70] |
|  | < 100 nM | COc1ccc2[nH]cc(-c3cc4c(ncc5cnn(C)c54)[nH]3)c2c1 [N.1.19] |
|  | 100 to 1000 nM | Cn1ncc2cnc3[nH]c(-c4ccc5nccnc5c4)cc3c21 [N.2.8] |
|  | 100 to 1000 nM | Cc1ccc(-c2cc3c(ncc4cnc(N(C)C)n43)[nH]2)cc1 [M.1.16] |
|  | 100 to 1000 nM | CC(C)(O)c1ccc(-c2nc(C3CCOCC3)n3c2cnc2[nH]ccc23)cc1 [N.1.84] |
|  | 100 to 1000 nM | Cn1ncc2cnc3[nH]c(-c4ccc5ncccc5c4)cc3c21 [N.2.7] |
|  | 100 to 1000 nM | Cc1nc(-c2ccc(C(C)(C)O)cc2F)c2cnc3[nH]ccc3n12 [N.1.102] |
|  | < 100 nM | COc1ccc2c(c1)c(-c1cc3c(ncc4cnc(CCCNC(C)=O)n43)[nH]1)cn2C [Example 5, N-(3-(7-(5-Methoxy-1-methyl-1H-indol-3-yl)-6H-imidazo[1,5-a]pyrrolo[2,3-e]pyrazin-1-yl)propyl)acetamide] |
|  | < 100 nM | CSc1ccc(-c2nn(C)c3c2cnc2[nH]ccc23)cc1 [AU.1, 1-Methyl-3-(4-(methylthio)phenyl)-1,6-dihydropyrazolo[3,4-d]pyrrolo[2,3-b]pyridine] |
|  | < 100 nM | Cn1cc(-c2cc3c(ncc4cnn(C)c43)[nH]2)c2ccccc21 [N.1.24] |
|  | 100 to 1000 nM | CS(=O)(=O)c1cccc(-c2cc3c(ncc4cnc(C(F)(F)F)n43)[nH]2)c1 [M.1.2] |
|  | < 100 nM | Cc1nc(-c2ccc(C3(O)CCN(C(=O)OC(C)(C)C)CC3)cc2)c2cnc3[nH]ccc3n12 [N.1.99] |
|  | < 100 nM | Cc1nc(-c2ccc(C(C)(C)O)c(Cl)c2)c2cnc3[nH]ccc3n12 [N.1.108] |
|  | 100 to 1000 nM | Cn1ncc2cnc3[nH]c(-c4cccc(CNS(C)(=O)=O)c4)cc3c21 [K.1, N-(3-(1-Methyl-1,6-dihydropyrazolo[3,4-d]pyrrolo[2,3-b]pyridin-7-yl)benzyl)methanesulfonamide] |
|  | < 100 nM | Cn1cc(-c2cc3c(ncc4cnn(C)c43)[nH]2)c2cc(C(=O)N3CCC(CO)CC3)ccc21 [J.1.8.3] |
|  | < 100 nM | CN1CCN(C(=O)CNC(=O)c2ccc3c(c2)c(-c2cc4c(ncc5cnn(C)c54)[nH]2)cn3C)CC1 [J.1.8.6] |
|  | < 100 nM | Cc1ccc2c(c1)c(-c1cc3c(ncc4cnn(C)c43)[nH]1)cn2C [N.1.111] |

From patent publication US20140349970A1 (ABBVIE INC., priority 2009, published 2014)
